Where a SMILES comes first, the peptide text is derived from it. [ ]: non-standard residue; d: D form. Orn(N5-OH,N5-Ac) = CC(=O)N(O)CCC[C@H](N)C(=O)O
Assay: CD spectroscopy of siderophore-iron(III) complexes
Assay type: physicochemical
Conditions: for Optimal Fe^3+ complex configuration: CD, phosphate buffer pH 7.0, optical isomer Λ or Δ
From the text: To elucidate the configuration of the siderophore-iron(III) complexes, we used circular dichroism (CD) spectroscopy where the minimum and maximum with Cotton effect are expected in the range of 350–490 nm ([Winkelmann, 1991]; [Matsumoto et al., 2001]). For the Λ configuration, the minimum band in the CD spectrum should be present before the maximum. Since the Δ configuration is a mirror image of the Λ configuration, the maximum band appears first ([Winkelmann, 1991]). In the presence of the Fe^3+ salt, the natural siderophores and SL solution changed from colorless to yellow after several minutes. This indicates the presence of the siderophore-ferric iron complex and further confirms the metal-binding properties of these compounds ([Winkelmann, 1991]). Based on this observation, during the CD experiments, for every siderophore, we adjusted the incubation time at the optimal concentration, ranging from 40 to 90 min (see Supplementary Figure S1).
Figure 4 CD spectra of the natural (ferrichrome and feroxamine) and synthetic (SL and SC) siderophores with Fe^3+ salt solution in phosphate buffer (pH = 7.0).
CD spectra were recorded in aqueous buffer solution (100 mM phosphate buffer, pH 7.0), in the presence of 4 mM iron(III) salt solution (FeCl3 in the phosphate buffer). To obtain optimal recording conditions, siderophore concentrations were varied in the range 0.24–1.0 mM with an incubation time of 20–90 min (Supplementary Figure S1). In all CD experiments, the siderophore-Fe^3+ molar ratio of 1:1 was maintained. The spectra were collected using the Biokine MOS-450/AF-CD spectrometer equipped with the Xe lamp using a 0.1 cm CD cell. The acquisition duration time was 2 s with a resolution of 1 nm. The measurements were performed in 100 mM phosphate buffer, pH 7.0, room temperature, and wavelength range 300–500 nm. The presented CD spectra were smoothed with the Savitzky–Golay method using GraphPad and are the averages of three scans. Each CD experiment was conducted twice to confirm the repeatability of the spectra.

[1] = siderophore with Fe^3+ salt 1:1, 100 mM phosphate buffer pH 7.0, room temperature, 300-500 nm, average of three scans

CC(=O)N([O-])CCC[C@@H]1NC(=O)CNC(=O)CNC(=O)CNC(=O)[C@H](CCCN([O-])C(C)=O)NC(=O)[C@H](CCCN([O-])C(C)=O)NC1=O.[Fe+3] [Ferrichrome] (cyclo(GGG[Orn(N5-OH,N5-Ac)][Orn(N5-OH,N5-Ac)][Orn(N5-OH,N5-Ac)]))
Optimal Fe^3+ complex configuration: Λ
CD Wavelength Maximum [1]: 456 nm
CD Wavelength Minimum [1]: 360 nm

cyc(Asp-(Orn(Ac,OH))3-Gly-Lys(N3)) (head to tail) [SC, azido-Cyc(Asp-(Orn(Ac‚OH))3-GIy-Lys(N3)), cyclic hydroxamate siderophore mimic]
CD Wavelength Maximum [1]: 487 nm
Ferric iron binding (CD and color change) (with Fe^3+ salt solution, phosphate buffer pH 7.0): cannot bind ferric iron

CC(=O)N([O-])CCCCCNC(=O)CCC(=O)N([O-])CCCCCNC(=O)CCC(=O)N([O-])CCCCCN.[Fe+3] [Feroxamine, feroxamine]
Optimal Fe^3+ complex configuration: Λ and Δ

— PMC10864483, “Iron uptake pathway of Escherichia coli as an entry route for peptide nucleic acids conjugated with a siderophore mimic” (Frontiers in Microbiology, 2024)
